Experimental findings from patent US6147121A, “Skin toning by stimulating collagen synthesis/proliferation of dermal fibroblasts” (Societe L'Oreal S.A., priority 1998, dated 2000) are described below.

Experiment [1] concerns normal human dermal fibroblast cultures. Nature of the experiment: effect of resveratrol on the synthesis of collagen: incorporation of tritiated proline into newly synthesized proteins of normal human dermal fibroblast cultures. In kind it is cell-based. Also on record: dose or concentration left out as unconfirmed. The following applies: positive control; not treated 22,528 cpm. The method, then:
(§1) Investigating the effect of resveratrol on the synthesis of collagen: This study was carried out by measuring the incorporation of radioactive proline into the proteins newly synthesized by normal human dermal fibroblast cultures. These newly synthesized proteins were predominantly collagen fibers. The fibroblast cultures were conducted according to conventional cell culture techniques, namely, in MEM/M199 medium marketed by Gibco, in the presence of sodium bicarbonate (1.87 mg/ml), of L-glutamine (2 mM), of penicillin (50 IU/ml) and of 10% fetal calf serum (Gibco). The test was carried out on 80% confluent cell cultures in a 24-well plate. […] The labelling with tritiated proline (L-[2,3-^3 H]proline marketed by Amersham, 33 mCi/ml) was conducted for 24 hours. The amount of tritiated proline incorporated was measured at the end of the test by acid precipitation of the proteins on filters and liquid scintillation counting. The results were evaluated relative to a control consisting of cells which were not treated with resveratrol. A positive control (vitamin C at 20 mg/ml) known to stimulate the synthesis of collagen was included in the test as a reference.

Experiment [2] has the same test system. The experiment is described as above. Type of experiment: cell-based. As to the method:
as §1

Experiment [3] has the same test system. In words: effect of resveratrol on the proliferation of the fibroblasts of the dermis: incorporation of radioactive thymidine into normal human dermal fibroblast cultures. Type of experiment: cell-based. Particulars: for tritiated thymidine incorporated (cpm): 48 hours contact, labelling 24 hours, not treated 13,649 cpm. As to the method: Investigating the effect of resveratrol on the proliferation of the fibroblasts of the dermis:
This study was carried out by measuring the incorporation of radioactive thymidine into normal human dermal fibroblast cultures.
The fibroblast cultures were conducted according to conventional cell culture techniques, namely in MEM/M199 medium marketed by Gibco, in the presence of sodium bicarbonate (1.87 mg/ml), of L-glutamine (2 mM), of penicillin (50 IU/ml) and of 10% fetal calf serum (Gibco).
The test was carried out on 80% confluent cell cultures in a 24-well plate. Resveratrol, at the concentration of 1.25 mM and 5 mM, was placed in contact with the cells for 48 hours. The labelling with tritiated thymidine ([methyl-^3 H]thymidine marketed by Amersham, 82 Ci/mmol) was conducted for 24 hours.
The amount of tritiated thymidine incorporated was measured at the end of the test by acid precipitation of the proteins on filters and liquid scintillation counting.
The results were evaluated relative to a control consisting of cells which were not treated with resveratrol.
A positive control (fetal calf serum at 20%) known to stimulate the […] was included in the test as a reference.

The test system of experiment [4] is interstitial collagenase (A2058 cells). In words: effect of resveratrol on the production of interstitial collagenase in a culture of A2058 cells (Elisa). In kind it is cell-based, human. The method, then: Effect of resveratrol on the expression of the collagenases:
The effect of resveratrol on the production of interstitial collagenase was evaluated in a model of culture of A2058 cells (derived from human malanomas: Templeton N. S. et al., Cancer Res., SO.- 54315431(1990)).
The cells were incubated in a phenol red-free MEM medium containing amino acids at the concentration of 2 mM, sodium pyruvate at the concentration of 1 mM and 10% charcoal-treated calf serum. They were then cultured at the density of 20,000 cells per well in the 24 wells of a multiwell plate.
Twenty-four hours after cultering, the cells were contacted with resveratrol. The production of interstitial collagenase was evaluated 96 hours later in the culture medium. This was carried out with the aid of an Elisa kit (Biotrack human MMPL; Amersham).
The resveratrol was tested at the concentrations 2×10^-7 M and 2×10^-6 M.
The results, expressed as percentages, represent the reduction in the production of interstitial collagenase compared with the control, namely, compared with a culture carried out under the same conditions in the absence of resveratrol.

In experiment [5] the test system is normal human dermal fibroblast cultures. In words: effect of resveratrol on the synthesis of collagen: incorporation of tritiated proline into newly synthesized proteins of normal human dermal fibroblast cultures. In kind it is cell-based. Further details: unit of the concentration uncertain. The following applies: 48 hours contact, labelling 24 hours, not treated 22,528 cpm. The method, then: as §1

As for `O=C1O[C@H]([C@@H](O)CO)C(O)=C1O` [Vitamin C, reference compound], the “tritiated proline incorporated (cpm)” value in experiment [1] is given as 36,431 cpm. In addition, the activity at 20000 µg/mL in experiment [2] (Homo sapiens, Fibroblast, 48 h, positive control, 20 mg/ml, not treated = 100, p <0.01, read-out: tritiated proline incorporated, % relative to not treated control) was found to be 162%.
Broadly, the inhibition is how much of the control response was suppressed. For `Oc1ccc(C=Cc2cc(O)cc(O)c2)cc1` [Resveratrol, 3,4',5-trihydroxystilbene], the “tritiated thymidine incorporated (cpm)” value was 15,055 cpm in experiment [3] (1.25 mM) and 19,229 cpm in experiment [3] (5.00 mM). Besides, the activity at 1250 µM in experiment [3] (Homo sapiens, Fibroblast, 1.25 mM, 48 hours, not treated = 100, p <0.05, read-out: tritiated thymidine incorporated, % relative to not treated control) amounted to 110%; in experiment [2] (Homo sapiens, Fibroblast, 1.25 mM, 48 hours, not treated = 100, p <0.01, read-out: tritiated proline incorporated, % relative to not treated control) it was 121%. Moreover, the activity at 5000 µM came out at 141% in experiment [3] (Homo sapiens, Fibroblast, 5.00 mM, 48 hours, not treated = 100, p <0.01, read-out: tritiated thymidine incorporated, % relative to not treated control) and 114% in experiment [2] (Homo sapiens, Fibroblast, 5.00 mM, 48 hours, not treated = 100, p <0.05, read-out: tritiated proline incorporated, % relative to not treated control). Moreover, the inhibition at 0.2 µM in experiment [4] (Homo sapiens, 0.2 μM, 96 hours, A2058 cells, read-out: % inhibition (reduction in the production of interstitial collagenase compared with the control)) stood at 14%. Further, the inhibition at 2 µM in experiment [4] (Homo sapiens, 2 μM, 96 hours, A2058 cells, read-out: % inhibition (reduction in the production of interstitial collagenase compared with the control)) came to 57%. In experiment [4] (conclusion from Table III), the “production of interstitial collagenase by A2058 cells (in words)” value is “reduced the production of interstitial collegenase by the A 2058 cells and this in a dose-dependent manner”. Also, the “tritiated proline incorporated (cpm)” value in experiment [5] (1.25 (unit uncertain)) is 27,164 cpm; in experiment [5] (5.00 (unit uncertain)), 25,769 cpm. For the same compound, the “incorporation of proline into collagen (in words)” value in experiment [2] (conclusion from Table I) is “substantially stimulated the incorporation of proline into collagen”.
